From patent publication US20070254019A1, “METHOD FOR TREATING BRAIN CANCER” (priority 2006, published 2007)

Tests used:
[1] = Plasma, tumor and tissue pharmacokinetic disposition of CKD-602 after single IV administration in mice bearing A375 tumors; type: in vivo
Text: The objectives of the study were to evaluate the plasma, tumor, and tissue disposition of CKD-602 after a single intravenous (IV) administration of liposomes entrapped with CKD-602 and having an outer surface coating of methoxypolyethylene glycol (S-CKD602) and non-liposomal CKD-602 in female SCID mice bearing A375 human melanoma xenografts. New sample processing methods were developed to evaluate the encapsulated and released CKD-602 in plasma after administration of S-CKD602. Microdialysis methodology was used to evaluate the release of CKD-602 from S-CKD602 in tumor ECF.
Mice. All mice were handled in accordance with the Guide to the Care and Use of Laboratory Animals (National Research Council, 1996), and studies were approved by the Institutional Animal Care and Use Committee at the University of Pittsburgh Medical Center. Mice (female C.B-17 SCID,4-6 weeks of age, and specific pathogen free), were obtained from Taconic (Hudson, N.Y.), and were allowed to acclimate to the animal facilities at the University of Pittsburgh for 1 week prior to initiation of study. Mice were housed in microisolator cages and allowed ISDPRO autoclavable rodent chow (PMI Nutrition International, Inc., Brentwood, Mo.) and mice received water ad libitum. Body weights and tumor size were measured twice weekly and clinical observations were made twice daily.
Tumor Lines. A375 human melanoma xenografts were obtained from the DCTD Tumor Repository (Fredrick, Md.) and were mouse antigen production test-negative. A375 tumors were expanded in culture and injected (1×10^7 cells/mouse) subcutaneously into passage mice. The A375 tumors were harvested when they were 1 to 2 g and were implanted as approximately 25-mg fragments subcutaneously on the fight flank of SCID mice by aseptic techniques. […] Pharmacokinetic and microdialysis studies were performed when the tumors were approximately 1000 to 1500 mm^3 (1 to 1.5 g) in size.
Formulation and Administration. S-CKD602 is a pegylated liposomal formulation of CKD-602. The clinical formulation of S-CKD602 was used in this study (Alza Corp., Mountain View Calif.) (Zamboni et al., Final results of a phase I and pharmacokinetic study of STEALTH liposomal CKD-602 (S-CKD602) in subjects with advanced solid tumors. Proceedings of ASCO […];82s:2006). Approximately 80% of the lipid in S-CKD602 liposome is fully hydrogenated soy phosphatidylcholine and cholesterol. In addition, methoxypolyethylene glycol is covalently bound to phosphatidylethanolamine and a component of the lipid bilayer. The mean particle size of the S-CKD602 was approximately 110 nm. CKD-602 is encapsulated in the core of the liposome with an encapsulation efficiency of greater than 90%. The drug-to-lipid ratio of S-CKD602 is approximately […] CKD-602 per milligram of lipid. In the S-CKD602 formulation, the CKD-602 concentration was 0.1 mg/mL. The doses of S-CKD602 refer to actual doses of CKD-602. S-CKD602 was administered at 1 mg/kg IV push via a tail vein over approximately 1 min. This dose is one-half the maximum tolerated dose (MTD) in mice. The dose of S-CKD602 administered was based on the maximum volume of drug allowed to be administered IV by the study's IACUC.
Non-liposomal CKD602 was administered at 30 mg/kg IV push via the tail vein. This dose is approximately the MTD for a single dose of non-liposomal CKD-602 in mice. Non-liposomal CKD-602 was prepared at 3 mg/mL in 270 mM mannitol and 0.4 mM tartaric acid in a 5% dextrose solution at pH 3.6. The vehicle control for S-CKD602 and non-liposomal CKD-602 was 0.9% NaCI and 270 mM mannitol and 0.4 mM tartaric acid in a 5% dextrose solution at pH 3.6, respectively.
Pharmacokinetic Studies. Due to limited sample volume, the pharmacokinetic and microdialysis studies were performed in separate groups of mice. Pharmacokinetic studies of S-CKD602 were performed after administration of vehicle, and at 5 min, 0.25, 0.5, 1, 2, 4, 7, 16, 24, 48, and 72 h after administration. […]

[2] = mice; IV push
[3] = Microdialysis study of tumor ECF disposition of CKD-602
Method: At all other microdialysis sample intervals, probe recovery was estimated using camptothecin as a tracer agent.
The HPLC system consisted of a Finnigan Specta Systems AS3000 autosampler and P4000 quarternary pump (Thermo Finnigan, Waltham, Mass.) with a Phenomenex Synergi Hydro-RP 80A (4 um, 100×2 mm) analytical column (Phenomenex, Torrance, Calif.). The isocratic mobile phase consisted of 0.1% formic acid in methanol:water (35:85, v/v) and was pumped at 0.2 mL/min. Injection volume was 10 pL and the run time was 10 min. […] The insert probe temperature was set at 400° C. with 3 kV ion spray voltage and 20 V orifice voltage. Nitrogen gas flow was fixed at 75 p.s.i. at the tank head unit. The system was operated with ThermoFinnigan Xcaliber software.

[4] = brain, single IV dose (S-CKD602 1 mg/kg; non-liposomal 30 mg/kg)
[5] = fat, single IV dose (S-CKD602 1 mg/kg; non-liposomal 30 mg/kg)
[6] = kidney, single IV dose (S-CKD602 1 mg/kg; non-liposomal 30 mg/kg)
[7] = liver, single IV dose (S-CKD602 1 mg/kg; non-liposomal 30 mg/kg)
[8] = muscle, single IV dose (S-CKD602 1 mg/kg; non-liposomal 30 mg/kg)
[9] = plasma, single IV dose (S-CKD602 1 mg/kg; non-liposomal 30 mg/kg)
[10] = spleen, single IV dose (S-CKD602 1 mg/kg; non-liposomal 30 mg/kg)
[11] = tumor, single IV dose (S-CKD602 1 mg/kg; non-liposomal 30 mg/kg)
[12] = tumor ECF by microdialysis, S-CKD602 (1 mg/kg), Non-Liposomal CKD-602 (30 mg/kg) IV

## CC[C@@]1(O)C(=O)OCc2c1cc1n(c2=O)Cc2c-1nc1ccccc1c2CCNC(C)C [Non-Liposomal CKD-602]
[1]; [4]
  AUC, sum total CKD-602, Brain: 849 ng·h/mL
  Cmax, sum total CKD-602, Brain: 572 ng/mL
  Tlast, sum total CKD-602, Brain: 7 h
  Tmax, sum total CKD-602, Brain: 4.8 min
[1]; [5]
  Cmax, sum total CKD-602, Fat: 7,321 ng/mL
  Tlast, sum total CKD-602, Fat: 24 h
  Tmax, sum total CKD-602, Fat: 15 min
[1]; [6]
  AUC, sum total CKD-602, Kidney: 56,267 ng/mL · h
  Cmax, sum total CKD-602, Kidney: 68,497 ng/mL
  Tlast, sum total CKD-602, Kidney: 24 h
  Tmax, sum total CKD-602, Kidney: 4.8 min
[1]; [7]
  AUC, sum total CKD-602, Liver: 68,620 ng/mL · h
  Cmax, sum total CKD-602, Liver: 69,000 ng/mL
  Tlast, sum total CKD-602, Liver: 16 h
  Tmax, sum total CKD-602, Liver: 240 min
[1]; [8]
  Cmax, sum total CKD-602, Muscle: 12,383 ng/mL
  Tlast, sum total CKD-602, Muscle: 24 h
  Tmax, sum total CKD-602, Muscle: 4.8 min
[1]; non-liposomal CKD-602 30 mg/kg IV, muscle vs fat
  overall distribution in muscle compared with fat: 3 fold
[1]; peritoneal cavity fat, single IV dose (S-CKD602 1 mg/kg; non-liposomal 30 mg/kg)
  AUC, sum total CKD-602, Fat: 8,280 ng/mL · h
[1]; plasma, S-CKD602 (1 mg/kg), Non-Liposomal CKD-602 (30 mg/kg) IV
  Plasma Sum Total AUC(0-inf): 9,117 ng/mL · h
[1]; plasma, last detectable time, single IV dose (S-CKD602 1 mg/kg; non-liposomal 30 mg/kg)
  Tlast, sum total CKD-602, Plasma: 16 h
[1]; [9]
  Cmax, sum total CKD-602, Plasma: 6,959 ng/mL
  Tmax, sum total CKD-602, Plasma: 4.8 min
[1]; plasma, single IV dose (S-CKD602 1 mg/kg; non-liposomal 30 mg/kg), listed as non-liposomal CKD-602
  Tmax, sum total CKD-602, Plasma: 4.98 min
[1]; plasma, single IV dose (S-CKD602 1 mg/kg; non-liposomal CKD-602 30 mg/kg)
  AUC, sum total CKD-602, Plasma: 9,117 ng/mL · h
[1]; skeletal muscle, single IV dose (S-CKD602 1 mg/kg; non-liposomal 30 mg/kg)
  AUC, sum total CKD-602, Muscle: 24,485 ng/mL · h
[1]; [10]
  AUC, sum total CKD-602, Spleen: 23,124 ng/mL · h
  Cmax, sum total CKD-602, Spleen: 14,724 ng/mL
  Tlast, sum total CKD-602, Spleen: 24 h
  Tmax, sum total CKD-602, Spleen: 15 min
[1]; sum total CKD-602 in tissues
  tissues with the highest exposures of CKD-602: liver and kidney
[1]; tumor homogenate AUC, S-CKD602 (1 mg/kg), Non-Liposomal CKD-602 (30 mg/kg) IV
  Tumor Sum Total(0-inf): 11,661 ng/mL · h
[1]; [11]
  Cmax, sum total CKD-602, Tumor: 3,688 ng/mL
  Tlast, sum total CKD-602, Tumor: 24 h
  Tmax, sum total CKD-602, Tumor: 30 min
[2]
  MTD for a single dose: ~30 mg/kg
[3]; detectable from 10 min, microdialysis
  CKD-602 in tumor ECF detectable until: 19.25 h
[3]; during the collection intervals
  variation of CKD-602 concentration in tumor ECF at individual time points: 4- to 5 fold
[3]; [12]
  Time >1 ng/mL In Tumor ECF: ˜20 h
  Tumor ECF AUC(0-inf): 639 ng·h/mL
